Data from patent US20150045410A1, “METHOD OF REGULATING CFTR EXPRESSION AND PROCESSING” (University of Iowa Research Foundation, priority 2012, published 2015).

Experiments:
CFTR-ΔF508 [1] = test: Transepithelial Cl^− current in primary human CFTR null airway epithelia (CFTR Q493X/S912X) transduced with Ad-CFTR-ΔF508; assay type: cell-based; conditions: CFTR null epithelia (Q493X/S912X) expressing Ad-CFTR-ΔF508, pretreated with oligonucleotide
Protocol: Transepithelial Cl^− current measurements were made in Ussing chambers about 2 weeks post-seeding (Itani, 0. A. et al. Human cystic fibrosis airway epithelia have reduced Cl− conductance but not increased Na+ conductance. Proc. Natl. Acad. Sci. USA 108, 10260-10265 (2011)). Briefly, primary cultures were mounted in a modified Ussing chamber (Jim's Instruments, 8 wells per instrument). Transepithelial Cl^− current was measured under short-circuit current conditions. Cultures were incubated overnight with 10 μM forskolin and 100 μM 3-isobutyl-1-methylxanthine (IBMX). After measuring baseline current, the transepithelial current (It) response to sequential apical addition of 100 μM amiloride (Amil), 100 μM 4,4′-diisothiocyanoto-stilbene-2,2′-disulfonic acid (DIDS), 4.8 mM [Cl^−], 10 μM forskolin and 100 μM 3-isobutyl-1-methylxanthine (IBMX), and 100 μM GlyH-101 was measured. Studies were conducted with a Cl^− concentration gradient containing 135 mM NaCl, 1.2 mM MgCl2, 1.2 mM CaCl2, 2.4 mM K2PO4, 0.6 mM KH2PO4, 5 mM dextrose, and 5 mM Hepes (pH 7.4) on the basolateral surface, and gluconate substituted for Cl^− on the apical side. […]

CFTR-ΔF508 [2] = test: CFTR-mediated Cl^− transport (transepithelial current) in primary CF airway epithelia; assay type: cell-based, human; conditions: multiple donors, oligonucleotide transfection, F&I then GlyH-101
Protocol: FIG. 27. […] Change in It following F&I+PG-01 treatment of primary CF airway epithelial cells (homozygous for ΔF508-CFTR) with indicated reagents. N=1 donor. PG-01 is a potentiator used along with F&I to increase Cl^− transport.
Airway epithelia from human trachea and primary bronchus removed from organs donated for research were cultured at the air-liquid interface (ALI) (Karp, P. H. et al. An in vitro model of differentiated human airway epithelia. Methods for establishing primary cultures. Methods Mol. Biol. 188, 115-137 (2002)). These studies were approved by the Institutional Review Board of the University of Iowa. Briefly, airway epithelial cells were dissociated from native tissue by pronase enzyme digestion. […]
Transepithelial Cl^− current measurements were made in Ussing chambers about 2 weeks post-seeding (Itani, 0. A. et al. Human cystic fibrosis airway epithelia have reduced Cl− conductance but not increased Na+ conductance. Proc. Natl. Acad. Sci. USA 108, 10260-10265 (2011)). […] Transepithelial Cl^− current was measured under short-circuit current conditions. […] After measuring baseline current, the transepithelial current (It) response to sequential apical addition of 100 μM amiloride (Amil), 100 μM 4,4′-diisothiocyanoto-stilbene-2,2′-disulfonic acid (DIDS), 4.8 mM [Cl^−], 10 μM forskolin and 100 μM 3-isobutyl-1-methylxanthine (IBMX), and 100 μM GlyH-101 was measured. […]

HA-tagged wild-type CFTR = test: Cell surface ELISA (anti-HA) in HeLa cells stably expressing HA-tagged wild-type CFTR; assay type: cell-based; conditions: wild-type CFTR-3HA under CMV promoter, 6, 12, 24 hrs post-transfection
Text: Hela cells stably expressing wild-type CFTR or CFTR-ΔF508 were kindly provided by Dr. G. Lukacs (Sharma, M., Benharouga, M., Hu, W. & Lukacs, G. L. Conformational and temperature-sensitive stability defects of the delta F508 cystic fibrosis transmembrane conductance regulator in post-endoplasmic reticulum compartments. J Biol. Chem. 276, 8942-8950, (2001); Sharma, M. et al. Misfolding diverts CFTR from recycling to degradation: quality control at early endosomes. J Cell Biol. 164, 923-933 (2004)). Cell surface ELISA was performed on these cells (Okiyoneda, T. et al. Peripheral protein quality control removes unfolded CFTR from the plasma membrane. Science 329, 805-810 (2010)) 6 hrs, 12 hrs, and 24 hrs after transfecting with oligonucleotides. HeLa cells were transfected in 96 well plates (Costar) with the SIN3A DsiRNA and miR-138 mimic as described earlier using the Lipofectamine™ RNAiMAX (Invitrogen) recommended reverse transfection protocol. Briefly, the plate containing the cells was moved to a cold room (4° C.), and all media used was ice cold. […] The reaction was stopped and read on a VersaMax™ Microplate Reader (Molecular Devices) at 540 nm using the SoftMax® Prof Software (Molecular Devices). For normalization, cells were lysed and total protein quantitated using the BCA Protein Assay kit (Pierce). […] Statistical significance between groups was determined using Student's t-test.

Row | Substance | CFTR-mediated Cl^− current (CFTR-ΔF508 [1]) | CFTR-mediated Cl^− transport (CFTR-ΔF508 [2]) | HA-tagged CFTR at the cell surface (ELISA) (HA-tagged wild-type CFTR)
1 | miR-138 mimic: synthetic modified RNA duplex, sense SEQ ID NO: 4, antisense SEQ ID NO: 5, showing miR-138-like activity | restored | restored | increase
2 | SIN3A DsiRNA: Dicer-substrate siRNA against SIN3A, sense SEQ ID NO: 6, antisense SEQ ID NO: 7 (sense GCGAUACAUGAAUUCAGAUACUACC; antisense GGUAGUAUCUGAAUUCAUGUAUCGCUC; chemistry not given here) | restored | restored | increase
